Our source for the IC50, Activity and inhibition values is ChEMBL document CHEMBL5576088, “Skin- and airway-deliverable TRPA1 inhibitor” (Bioorg Med Chem, 2024).

SMILES strings stand for the structures. Active and inactive are the calls of the source. The rule behind the calls is not given here.

Assay [1] addresses T1, Transient receptor potential cation channel subfamily A member 1 (Homo sapiens, UniProt O75762). Description: Antagonist activity at human TRPA1 expressed in HEK293T cells assessed as inhibition of AITC-induced current by whole cell patch clamp analysis. Format: cell-based. For orientation: In patch-clamp work, channel activity is measured electrically.
Assay [2] has as its target T1, Transient receptor potential cation channel subfamily A member 1. Put plainly: Antagonist activity at wildtype human TRPA1 expressed in HEK293 cells assessed as inhibition of AITC-induced intracellular Ca2+ flux at 100 uM in presence of 5 uM AITC by Fluo4-AM dye based fluorescence analysis. Format: cell-based. Particulars: filed as antagonist. (In general: Calcium flux is commonly read through the fluorescence of an indicator in the cells.)

Assay [3] has the same target. Description: Antagonist activity at human TRPA1 expressed in HEK293 cells assessed as inhibition of AITC-induced intracellular Ca2+ flux in presence of 5 uM AITC by Fluo4-AM dye based fluorescence analysis. Format: cell-based.
The subject of the next assay is Homo sapiens. Description: Inhibition of methylparaben/phenoxyethanol-induced sensory irritation in human at 0.2% applied topically and measured for 8 mins. Format: functional, organism-based. Particulars: route top.
In assay [4] the target is T1, Transient receptor potential cation channel subfamily A member 1. Put plainly: Antagonist activity at full length human TRPA1 expressed in HEK293 cells assessed as inhibition of AITC-induced intracellular Ca2+ flux in presence of 10 uM AITC by Fluo4-AM dye based fluorescence analysis. Type of assay: cell-based.

T1 sequence (O75762 whole entry): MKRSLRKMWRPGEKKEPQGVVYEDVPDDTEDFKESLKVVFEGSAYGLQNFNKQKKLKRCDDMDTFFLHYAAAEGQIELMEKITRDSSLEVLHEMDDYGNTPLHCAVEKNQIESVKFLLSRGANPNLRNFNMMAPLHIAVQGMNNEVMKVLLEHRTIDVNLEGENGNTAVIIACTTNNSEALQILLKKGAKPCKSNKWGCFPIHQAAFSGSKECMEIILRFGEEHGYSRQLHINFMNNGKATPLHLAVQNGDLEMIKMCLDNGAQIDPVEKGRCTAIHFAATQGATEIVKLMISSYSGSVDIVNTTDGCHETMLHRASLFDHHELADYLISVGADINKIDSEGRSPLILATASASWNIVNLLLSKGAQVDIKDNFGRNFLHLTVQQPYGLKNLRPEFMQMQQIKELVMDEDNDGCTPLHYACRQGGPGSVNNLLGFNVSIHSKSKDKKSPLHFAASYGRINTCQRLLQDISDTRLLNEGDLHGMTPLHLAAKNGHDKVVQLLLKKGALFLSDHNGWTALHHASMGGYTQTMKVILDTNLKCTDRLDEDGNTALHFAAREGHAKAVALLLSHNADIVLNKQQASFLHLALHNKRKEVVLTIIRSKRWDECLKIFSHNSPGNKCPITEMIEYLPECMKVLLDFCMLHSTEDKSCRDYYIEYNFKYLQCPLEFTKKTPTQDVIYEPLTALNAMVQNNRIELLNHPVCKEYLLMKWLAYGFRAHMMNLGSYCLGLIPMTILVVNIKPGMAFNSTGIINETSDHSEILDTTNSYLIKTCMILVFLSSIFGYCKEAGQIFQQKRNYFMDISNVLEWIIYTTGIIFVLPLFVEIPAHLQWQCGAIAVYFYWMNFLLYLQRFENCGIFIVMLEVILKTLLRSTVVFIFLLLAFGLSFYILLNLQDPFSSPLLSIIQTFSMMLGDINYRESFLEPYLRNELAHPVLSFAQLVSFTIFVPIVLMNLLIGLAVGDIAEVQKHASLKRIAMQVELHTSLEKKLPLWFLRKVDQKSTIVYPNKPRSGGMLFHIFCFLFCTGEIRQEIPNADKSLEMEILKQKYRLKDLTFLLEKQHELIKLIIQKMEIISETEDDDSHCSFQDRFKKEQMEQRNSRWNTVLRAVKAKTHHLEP

On to `CC1(C)[C@@H]2CC[C@@]1(C)[C@](C)(O)C2`, for which the IC50 (commonly the midpoint of a concentration-inhibition curve) in assay [1] was determined as 120 µM.

On to `CC(C)c1ccc(NC(=O)Cn2cnc3c2c(=O)n(C)c(=O)n3C)cc1`, for which the result in assay [2] was Active.

Take `CC(CO)C(C)Cc1ccccc1` (mixture of isomers): in assay [3], the IC50 was 17 µM.

On to `CCC(O)C(C)Cc1ccccc1` (mixture of isomers), for which the IC50 in assay [3] was found to be 21.8 µM.

For `CC(CCO)CC(C)c1ccccc1` (mixture of isomers), the IC50 in assay [3] was found to be 19.8 µM.

Consider `C/C(=C\C(C)c1ccccc1)CO` (racemic), for which the IC50 in assay [3] was found to be 32.1 µM.

In the case of `CC1(C)C2CCC1(C)C(O)C2` (racemic) [BORNEOL], the inhibition result in the assay with Homo sapiens is “inactive”. Further, in assay [4], the IC50 was found to be 529 µM.

For the molecule `CC(=C\c1ccc(Cl)cc1)/C(C)=N/O` [AP18 5], in assay [2], the outcome was Active. The IC50 in assay [4] is 1.72 µM.
